Experimental data: patent US6274587A, “Tricyclic dihydropyrimidine potassium channel openers” (Abbott Laboratories, priority 1999, dated 2001)

Legend:
potassium channels = experiment: Membrane Hyperpolarization (MHP) in Guinea-Pig Bladder (GPB) Cells, FLIPR with DiBAC(4)3; type: cell-based; details: for EC50: concentration eliciting 50% of the test sample's maximal response; for Maximal Response (% P1075): maximal steady-state hyperpolarization relative to 10 μM P1075 (100%)
Description: Compounds were evaluated for potassium channel opening activity using primary cultured quinea-pig urinary bladder (GPB) cells.
For the preparation of urinary bladder smooth muscle cells, urinary bladders were removed from male quinea-pigs (Hartley, Charles River, Wilmington, Mass.) weighing 300-400 g and placed in ice-cold Ca^2+ -free Krebs solution (Composition, mM: KCl, 2.7; KH2 PO4, 1.5; NaCl, 75; Na2 HPO4, 9.6; Na2 HPO4.7H2 O, 8; MgSO4, 2; glucose, 5; HEPES, 10; pH 7.4). Cells were isolated by enzymatic dissociation as previously described with minor modifications in (Klockner, U. and Isenberg, G., Pflugers Arch. 1985, 405, 329-339), hereby incorporated by reference. The bladder was cut into small sections and incubated in 5 mL of the Kreb's solution containing 1 mg/mL collagenase (Sigma, St. Louis, Mo.) and 0.2 mg/mL pronase (Calbiochem, La Jolla, Calif.) with continuous stirring in a cell incubator for 30 minutes. The mixture was then centrifuged at 1300×g for 5 minutes, and the pellet resuspended in Dulbecco's PBS (GIBCO, Gaithersburg, Md.) and recentrifuged to remove residual enzyme. The cell pellet was resuspended in 5 mL growth media (composition: Dulbecco's modified Eagle's medium supplemented with 10% fetal bovine serum, 100 units/niL penicillin, 100 units/mL streptomycin and […] amphotericin B) and further dissociated by pipetting the suspension through a flame-polished Pasteur pipette and passing it through a polypropylene mesh membrane (Spectrum, Houston, Tex.). The cell density was adjusted to 100,000 cells/mL by resuspension in growth media. Cells were plated in clear-bottomed black 96-well plates (Packard) for membrane potential studies at a density of 20,000 cells/well and maintained in a cell incubator with 90% air: 10% CO2 until confluent. Cells were confirmed to be of smooth muscle type by cytoskeletal staining using a monoclonal mouse anti human-α-smooth muscle actin (Biomeda, Foster City, Calif.).
Functional activity at potassium channels was measured by evaluating changes in membrane potential using the bis-oxonol dye DiBAC(4)3 (Molecular Probes) in a 96-well cell-based kinetic assay system, Fluorescent Imaging Plate Reader (FLIPR) (K. S. Schroeder et al., J. Biomed. Screen., v. 1 pp. 75-81 (1996)), hereby incorporated by reference. DiBAC(4)3 is an anionic potentiometric probe which partitions between cells and extracellular solution in a membrane potential-dependent manner. With increasing membrane potential (for example, K^+ depolarization), the probe further partitions into the cell; this is measured as an increase in fluorescence due to dye interaction with intracellular lipids and proteins. Conversely, decreasing membrane potential (hyperpolarizationby potassium channel openers) evokes a decrease in fluorescence.
Confluent quinea-pig urinary bladder cells cultured in black clear-bottomed96-well plates were rinsed twice with […] assay buffer (composition, mM: HEPES, 20; NaCl, 120; KCl, 2; CaCl2, 2; MgCl2, 1; glucose, 5; pH 7.4 at 25 ° C.) containing 5 μM DiBAC(4)3 and incubated with […] of the buffer in a cell incubator for 30 minutes at 37 ° C. to ensure dye distribution across the membrane. After recording the baseline fluorescence for 5 minutes, the reference or test compounds, prepared at 10 times the concentration in the assay buffer, were added directly to the wells. Changes in fluorescence were monitored for an additional 25 minutes. Hyperpolarization responses were corrected for any background noise and were normalized to the response observed with 10 μM of the reference compound P1075, N"-cyano-N-(tert-pentyl)-N'-(3-pyridinyl)quanidine, which was assigned as 100%. P1075 is a potent opener of smooth muscle KATP channels (Quast et al., Mol. Pharmacol., v. 43 pp. 474-481 (1993)) and was prepared using the procedures described in (Manley, J. Med. Chem. (1992) 35, 2327-2340), hereby incorporated by reference. […]

potassium channel = experiment: Functional Potassium Channel Opening Activity in Isolated Bladder Strips (electrically stimulated twitch); details: Landrace pig bladder strips; for Index: ED50 of P1075 divided by ED50 of test agonist, averaged over tissues; for Efficacy (% P1075): maximal efficacy relative to P1075, field stimulation 0.05 Hz; for pD2: negative logarithm of ED50
Description: Compounds of the present invention were evaluated for functional potassium channel opening activity using tissue strips obtained from Landrace pig bladders.
Landrace pig bladders were obtained from female Landrace pigs of 9-30 kg. Landrace pigs wer eutanized with an intraperitoneal injection of pentobarbital solution, Somlethal®, J. A. Webster Inc., Sterling Mass. The entire bladder was removed and immediately placed into Krebs Ringer bicarbonate solution (composition, mM: NaCl, 120; NaHCO3, 20; dextrose, 11; KCl, 4.7; CaCl2, 2.5; MgSO4, 1.5; KH2 PO4, 1.2; K2 EDTA, 0.01, equilibrated with 5% CO2 /95% O2 pH 7.4 at 37 ° C.). Propranolol (0.004 mM) was included in all of the assays to block β-adrenoceptors. The trigonal and dome portions were discarded. Strips 3-5 mm wide and 20 mm long were prepared from the remaining tissue cut in a circular fashion. The mucosal layer was removed. One end was fixed to a stationary glass rod and the other to a Grass FT03 transducer at a basal preload of 1.0 gram. Two parallel platinum electrodes were included in the stationary glass rod to provide field stimulation of 0.05 Hz, 0.5 milli-seconds at 20 volts. This low frequency stimulation produced a stable twitch response of 100-500 centigrams. Tissues were allowed to equilibrate for at least 60 minutes and primed with 80 mM KCl. A control concentration response curve (cumulative) was generated for each tissue using the potassium channel opener P1075 as the control agonist. […] After a 60 minute rinsing period, a concentration response curve (cumulative) was generated for the test agonist in the same fashion as that used for the control agonist P1075. The maximal efficacy of each compounds (expressed as % relative to P1075) is reported. The amount of agent necessary to cause 50% of the agent's maximal response (ED50) was calculated using "ALLFIT" (DeLean et al., Am. J. Physiol., 235, E97 (1980)), hereby incorporated by reference, and agonist potencies were expressed as pD2 (the negative logarithm). Agonist potencies were also expressed as an index relative to P1075. The index was calculated by dividing the ED50 for P1075 by the ED50 for the test agonist in a given tissue. Each tissue was used for only one test agonist, and the indices obtained from each tissue were averaged to provide an average index of potency.

[1] = molecular target: smooth muscle KATP channels (Rattus norvegicus, UniProt Q63563); details: Quast et al., Mol. Pharmacol., v. 43 pp. 474-481 (1993); cited from earlier work
smooth muscle KATP channels, sequence (Q63563 1-1545 isoform Q63563-2): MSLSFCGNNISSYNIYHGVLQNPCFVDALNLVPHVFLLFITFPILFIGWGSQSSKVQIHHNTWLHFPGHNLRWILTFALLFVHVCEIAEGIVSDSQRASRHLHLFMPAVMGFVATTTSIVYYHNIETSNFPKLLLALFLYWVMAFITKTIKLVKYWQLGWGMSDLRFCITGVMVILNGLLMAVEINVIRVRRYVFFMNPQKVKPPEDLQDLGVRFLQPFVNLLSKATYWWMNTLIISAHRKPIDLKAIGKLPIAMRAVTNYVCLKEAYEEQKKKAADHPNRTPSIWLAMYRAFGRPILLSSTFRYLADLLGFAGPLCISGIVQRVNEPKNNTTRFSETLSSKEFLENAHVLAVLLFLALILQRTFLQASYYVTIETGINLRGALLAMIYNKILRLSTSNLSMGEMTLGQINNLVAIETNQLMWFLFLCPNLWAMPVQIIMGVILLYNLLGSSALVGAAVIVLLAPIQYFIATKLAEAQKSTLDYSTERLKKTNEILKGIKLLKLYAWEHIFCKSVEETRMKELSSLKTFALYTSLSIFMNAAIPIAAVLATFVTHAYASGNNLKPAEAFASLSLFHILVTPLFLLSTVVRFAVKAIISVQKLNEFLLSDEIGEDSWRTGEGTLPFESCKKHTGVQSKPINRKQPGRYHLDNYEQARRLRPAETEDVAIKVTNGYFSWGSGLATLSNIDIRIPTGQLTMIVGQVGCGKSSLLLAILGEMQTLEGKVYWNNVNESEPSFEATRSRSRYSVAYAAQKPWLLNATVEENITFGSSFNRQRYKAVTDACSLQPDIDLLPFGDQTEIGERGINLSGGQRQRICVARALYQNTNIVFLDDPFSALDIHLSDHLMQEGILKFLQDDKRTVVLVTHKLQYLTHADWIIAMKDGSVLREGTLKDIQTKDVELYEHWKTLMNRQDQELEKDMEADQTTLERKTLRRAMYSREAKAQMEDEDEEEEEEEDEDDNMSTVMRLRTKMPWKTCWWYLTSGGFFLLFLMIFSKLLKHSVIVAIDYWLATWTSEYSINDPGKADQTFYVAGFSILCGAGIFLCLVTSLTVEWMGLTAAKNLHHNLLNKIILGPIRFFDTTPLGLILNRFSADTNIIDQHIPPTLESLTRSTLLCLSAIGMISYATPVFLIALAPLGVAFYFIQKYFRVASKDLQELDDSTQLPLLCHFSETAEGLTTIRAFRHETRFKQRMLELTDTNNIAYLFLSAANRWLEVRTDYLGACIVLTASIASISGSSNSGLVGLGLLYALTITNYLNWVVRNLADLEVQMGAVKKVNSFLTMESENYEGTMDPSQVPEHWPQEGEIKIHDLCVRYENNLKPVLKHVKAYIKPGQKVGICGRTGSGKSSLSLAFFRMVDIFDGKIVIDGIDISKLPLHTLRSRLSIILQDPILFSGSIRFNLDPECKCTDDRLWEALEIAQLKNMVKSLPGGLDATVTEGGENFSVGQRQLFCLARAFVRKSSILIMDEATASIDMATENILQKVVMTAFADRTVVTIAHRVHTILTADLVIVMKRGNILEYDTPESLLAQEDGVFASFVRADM
smooth muscle KATP channels, sequence (Q63664 whole entry partner): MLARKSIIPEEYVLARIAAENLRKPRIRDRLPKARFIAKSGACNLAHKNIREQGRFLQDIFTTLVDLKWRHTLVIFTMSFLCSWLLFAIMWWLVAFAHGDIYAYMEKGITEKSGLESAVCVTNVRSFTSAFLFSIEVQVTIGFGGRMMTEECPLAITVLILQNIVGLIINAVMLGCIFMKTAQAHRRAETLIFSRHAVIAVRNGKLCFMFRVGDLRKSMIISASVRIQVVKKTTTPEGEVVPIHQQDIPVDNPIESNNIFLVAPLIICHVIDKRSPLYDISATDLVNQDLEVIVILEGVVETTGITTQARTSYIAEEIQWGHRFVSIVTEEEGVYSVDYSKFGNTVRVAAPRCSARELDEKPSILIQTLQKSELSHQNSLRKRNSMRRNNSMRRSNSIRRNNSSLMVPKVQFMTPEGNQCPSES

| Compound | EC50 (potassium channels) [nM] | Maximal Response (% P1075) (potassium channels) | Index (potassium channel) | Efficacy (% P1075) (potassium channel) | pD2 (potassium channel) | elimination of the stimulated twitch (potassium channel; dose dependent over 10^-9 to 10^-5 M) | opener of smooth muscle KATP channels [1] |
| --- | --- | --- | --- | --- | --- | --- | --- |
| O=C1CCCC2=C1C(c1ccc(F)c(Br)c1)n1nccc1N2 (single isomer, unassigned; (-)) [Example 15, (-) 9-(3-bromo-4-fluorophenyl)-5,6,7,9-tetrahydropyrazolo[5,1-b]quinazolin-8(4H)-one] | 51 | 103 | 0.21 | 100 | 6.67 | – | – |
| O=C1CCCC2=C1C(c1ccc(F)c(Br)c1)n1nccc1N2 (stereo not drawn) [Example 1] | 31 | 87 | 0.26 | 96 | 6.47 | – | – |
| O=C1CCCC2=C1C(c1cccc3ccccc13)n1nccc1N2 (stereo not drawn) [Example 3, 9-(1-naphthyl)-5,6,7,9-tetrahydropyrazolo[5,1-b]quinazolin-8(4H)-one] | 24000 | 34 | – | – | – | – | – |
| O=C1CCCC2=C1C(c1cccc(Br)c1)n1nccc1N2 (stereo not drawn) [Example 7, 9-(3-bromophenyl)-5,6,7,9-tetrahydropyrazolo[5,1-b]quinazolin-8(4H)-one] | 550 | 98 | – | – | – | – | – |
| O=C1CCCC2=C1C(c1cccc(Cl)c1)n1nccc1N2 (stereo not drawn) [Example 8, 9-(3-chlorophenyl)-5,6,7,9-tetrahydropyrazolo[5,1-b]quinazolin-8(4H)-one] | 1120 | 92 | – | – | – | – | – |
| Cc1cccc(C2C3=C(CCCC3=O)Nc3ccnn32)c1 (stereo not drawn) [Example 13, 9-(3-methylphenyl)-5,6,7,9-tetrahydropyrazolo[5,1-b]quinazolin-8(4H)-one] | 10000 | 50 | – | – | – | – | – |
| O=S1(=O)CCCC2=C1C(c1ccc(F)c(Br)c1)n1nccc1N2 (stereo not drawn) [Example 17] | 910 | 89 | – | – | – | – | – |
| CCC(C)(C)NC(=NC#N)Nc1cccnc1 [Example P1075, N"-cyano-N-(tert-pentyl)-N'-(3-pyridinyl)quanidine, reference compound] | – | – | – | – | – | completely eliminated the stimulated twitch | potent opener |

Further compounds by falling EC50 (potassium channels), results first:

| EC50 (potassium channels) [nM] | Compound | Maximal Response (% P1075) (potassium channels) | Index (potassium channel) | Efficacy (% P1075) (potassium channel) | pD2 (potassium channel) | elimination of the stimulated twitch (potassium channel; dose dependent over 10^-9 to 10^-5 M) | opener of smooth muscle KATP channels [1] |
| --- | --- | --- | --- | --- | --- | --- | --- |
| 2860 | N#Cc1cccc(C2C3=C(CCCC3=O)Nc3ccnn32)c1 (stereo not drawn) [Example 12, 9-(3-cyanophenyl)-5,6,7,9-tetrahydropyrazolo[5,1-b]quinazolin-8(4H)-one] | 85 | – | – | – | – | – |
| 1710 | O=C1CCCC2=C1C(c1cccc(OC(F)(F)F)c1)n1nccc1N2 (stereo not drawn) [Example 11, 9-[3-(trifluoromethoxy)phenyl]-5,6,7,9-tetrahydropyrazolo[5,1-b]quinazolin-8(4H)-one] | 90 | – | – | – | – | – |
| 429 | O=C1CCCC2=C1C(c1ccc3ccccc3c1)n1nccc1N2 (stereo not drawn) [Example 4, 9-(2-naphthyl)-5,6,7,9-tetrahydropyrazolo[5,1-b]quinazolin-8(4H)-one] | 96 | – | – | – | – | – |
| 290 | O=C1CCCC2=C1C(c1ccc(F)c(C(F)(F)F)c1)n1nccc1N2 (stereo not drawn) [Example 10, 9-[4-fluoro-3-(trifluoromethyl)phenyl]-5,6,7,9-tetrahydropyrazolo[5,1-b]quinazolin-8(4H)-one] | 100 | – | – | – | – | – |
| 258 | O=C1OCC2=C1C(c1ccc(F)c(Br)c1)n1nccc1N2 (stereo not drawn) [Example 14, 8-(3-bromo-4-fluorophenyl)-5,8-dihydro-4H,7H-furo[3,4-d]pyrazolo[1,5-a]pyrimidin-7-one] | 89 | – | – | – | – | – |
| 187 | O=C1CCCC2=C1C(c1ccc(Cl)c(C(F)(F)F)c1)n1nccc1N2 (stereo not drawn) [Example 9, 9-[4-chloro-3-(trifluoromethyl)phenyl]-5,6,7,9-tetrahydropyrazolo[5,1-b]quinazolin-8(4H)-one] | 94 | – | – | – | – | – |
| 130 | O=C1CCCC2=C1C(c1ccc(Cl)c(Cl)c1)n1nccc1N2 (stereo not drawn) [Example 6, 9-(3,4-dichlorophenyl)-5,6,7,9-tetrahydropyrazolo [5,1-b]quinazolin-8(4H)-one] | 95 | – | – | – | – | – |
| 122 | O=C1CCCC2=C1C(c1ccc(Br)c(Br)c1)n1nccc1N2 (stereo not drawn) [Example 5, 9-(3 4-dibromophenyl)-5,6,7,9-tetrahydropyrazolo[5,1-b]quinazolin-8(4H)-one] | 98 | – | – | – | – | – |
| 40 | O=C1CSCC2=C1C(c1ccc(F)c(Br)c1)n1nccc1N2 (stereo not drawn) [Example 2, 9-(3-bromo-4-fluorophenyl)-5,9-dihydro-4H-pyrazolo[1,5-a]thiopyrano[3,4-d]pyrimidin-8(7H)-one] | 100 | – | – | – | – | – |
| 20 | O=C1CCCC2=C1C(c1ccc(F)c(Br)c1)n1nccc1N2 (single isomer, unassigned; (+)) [Example 16, (+) 9-(3-bromo-4-fluorophenyl)-5,6,7,9-tetrahydropyrazolo [5,1-b]quinazolin-8(4H)-one] | 105 | 0.28 | 95 | 6.34 | – | – |
